{"source": "patent USRE42412E1", "about": "“Materials and methods for the treatment of gastroesophageal reflux disease” (ARYx Therapeutics, Inc., priority 2000, dated 2011)", "origin": "cited, not measured here", "key": {"5HT4 receptors": {"biological_target": "5HT4 receptors (Homo sapiens, UniProt Q13639)", "sequence (Q13639 whole entry)": "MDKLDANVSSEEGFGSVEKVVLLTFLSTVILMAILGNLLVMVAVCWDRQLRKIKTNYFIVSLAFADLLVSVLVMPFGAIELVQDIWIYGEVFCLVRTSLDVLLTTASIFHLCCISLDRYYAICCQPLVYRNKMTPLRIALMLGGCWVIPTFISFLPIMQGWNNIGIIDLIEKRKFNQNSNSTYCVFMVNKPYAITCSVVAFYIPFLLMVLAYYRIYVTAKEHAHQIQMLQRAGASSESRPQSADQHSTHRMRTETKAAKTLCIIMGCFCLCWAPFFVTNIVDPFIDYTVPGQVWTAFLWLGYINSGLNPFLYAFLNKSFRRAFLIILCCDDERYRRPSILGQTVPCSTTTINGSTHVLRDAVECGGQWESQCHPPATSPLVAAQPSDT"}, "[1]": {"details": "between July 1993 and December 1999"}, "[2]": {"details": "of a dose of cisapride"}}}
{"compound": "COc1cc(N)c(Cl)cc1C(=O)NC1CCN(CCCOc2ccc(F)cc2)CC1OC", "note": "(stereo not shown) [cisapride]", "values": [{"measurement": "ligand potency at 5HT4 receptors", "setting": "5HT4 receptors", "value": "potent ligand"}, {"measurement": "deaths reported", "setting": "[1]", "value": 80}, {"measurement": "serious cardiac arrhythmias reportedly associated", "setting": "[1]; ventricular tachycardia, ventricular fibrillation, torsades de pointes, QT prolongation", "value": "at least 341"}, {"measurement": "fraction of dose metabolized by oxidative N-dealkylation at the piperidine nitrogen or aromatic hydroxylation", "setting": "[2]", "value": "More than 90%"}]}
